PMC7508162 (Frontiers in Pharmacology, 2020)

Key:
[1] = Chemical stability of stock solutions by LC/ESI-MS analysis; format: physicochemical
Protocol: To ensure that degradation was caused by microsomal enzymes and not due to chemical instability, stock solutions were analyzed by LC/ESI-MS analysis, and were in all cases found to be stable. […] Nevertheless, they represent useful tool compounds for in vitro studies.

[2] = biological target: T1, NTPDase8 (Homo sapiens, UniProt Q5MY95); assay: Malachite green assay for NTPDase8; format: biochemical; set-up: expressed in transfected cells; host or cells: COS-7 cell membrane preparations; conditions: for Ki: ATP 50 µM, recombinant COS-7 cell membrane preparation, read-out: Ki ± SEM; for % inhibition: test concentration not given
T1 sequence (Q5MY95 1-495): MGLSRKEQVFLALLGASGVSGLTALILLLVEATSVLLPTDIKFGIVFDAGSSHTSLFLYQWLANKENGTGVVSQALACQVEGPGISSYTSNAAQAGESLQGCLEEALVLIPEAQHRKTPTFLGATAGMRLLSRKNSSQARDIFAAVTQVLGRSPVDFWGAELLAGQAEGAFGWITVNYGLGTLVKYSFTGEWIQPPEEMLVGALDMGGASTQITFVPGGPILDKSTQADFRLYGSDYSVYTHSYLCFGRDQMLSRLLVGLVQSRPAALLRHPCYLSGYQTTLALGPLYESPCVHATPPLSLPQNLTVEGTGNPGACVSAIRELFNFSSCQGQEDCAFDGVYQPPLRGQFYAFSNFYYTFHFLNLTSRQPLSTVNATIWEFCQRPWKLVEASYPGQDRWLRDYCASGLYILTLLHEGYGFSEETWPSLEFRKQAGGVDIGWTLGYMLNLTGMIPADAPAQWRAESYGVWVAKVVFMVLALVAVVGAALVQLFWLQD
Protocol: The enzymatic activity assay was determined essentially as previously described ([Cogan et al., 1999]) with a few adaptations. The reaction buffer contained 10 mM HEPES, 2 mM CaCl2, 1 mM MgCl2, pH 7.4 in a final volume of 50 μl in transparent 96-well half area plates. For CD39 (NTPDase1), we made use of human umbilical cord membranes preparations which express high levels of the enzyme. For the other human NTPDase isoenzymes, we had to resort to recombinant expression. Human umbilical cord membrane preparations (250 ng) natively expressing high amounts of CD39, or the respective recombinant COS-7 cell membrane preparations expressing the appropriate NTPDase isoenzyme (ca. 100 ng of protein depending on enzyme activity) ([Sévigny et al., 1997]; [Lecka et al., 2013]) with or without inhibitor were preincubated at 37°C and gentle shaking (Eppendorf Thermomixer comfort at 500 rpm) for 5 min. The amount of enzyme preparation was adjusted to ensure 10–20% of substrate conversion. […] ([Kukulski et al., 2005]). After 15 min of incubation at 37°C with gentle shaking, the reaction was stopped by adding the detection reagents (20 µl malachite green solution, 0.6 mM, and 30 µl ammonium molybdate solution, 20 mM, in sulfuric acid, 1.5 M). The released (inorganic) phosphate was quantified after 20 min of gentle shaking at 25°C by measuring the absorption of the malachite green-phosphomolybdate complex at 600 nm using a BMG PheraStar FS plate reader (BMG Labtech GmbH, Ortenberg, Germany). The corrected absorption was calculated by subtracting the absorption of the negative control samples, which were incubated with denatured enzyme (90°C, 15 min), and the inhibition was calculated as follows:
% Inhibition=(B−T)/B*100%
where B is the average corrected absorption of the positive control without inhibitor and T the corrected absorption in the presence of test compound.
Full concentration-inhibition curves were determined with inhibitor concentrations ranging from 0.1 to 300 µM in the presence of 2% DMSO. Three independent experiments were performed (n = 3) and curves were calculated by the GraphPad Prism 8 software. The Ki value was calculated using the Cheng-Prusoff equation for competitive inhibitors: […]

[3] = biological target: T2, human CD39 (Homo sapiens, UniProt P49961); assay: Fluorescence capillary electrophoresis assay for CD39; format: biochemical; set-up: Human umbilical cord membrane preparations (250 ng) natively expressing high amounts of CD39; from tissue; host or cells: human umbilical cord membranes; conditions: fluorescent substrate PSB-017621A 0.5 µM; human umbilical cord membrane preparation; n = 3; Cheng-Prusoff; read-out: Ki ± SEM
T2 sequence (P49961 1-510): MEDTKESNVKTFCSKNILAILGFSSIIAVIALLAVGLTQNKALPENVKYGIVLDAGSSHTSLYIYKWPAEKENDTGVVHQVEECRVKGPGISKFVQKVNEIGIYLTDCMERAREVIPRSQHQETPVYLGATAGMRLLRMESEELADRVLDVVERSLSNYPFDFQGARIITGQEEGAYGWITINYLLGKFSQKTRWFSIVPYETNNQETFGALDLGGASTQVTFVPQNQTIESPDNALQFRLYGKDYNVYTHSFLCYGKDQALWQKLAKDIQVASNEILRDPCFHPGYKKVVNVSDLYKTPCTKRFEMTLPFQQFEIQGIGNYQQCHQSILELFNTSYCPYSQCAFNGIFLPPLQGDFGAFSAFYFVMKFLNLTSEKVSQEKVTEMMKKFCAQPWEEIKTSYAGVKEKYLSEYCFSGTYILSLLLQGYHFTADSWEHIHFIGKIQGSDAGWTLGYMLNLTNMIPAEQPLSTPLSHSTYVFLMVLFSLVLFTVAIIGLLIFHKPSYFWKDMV
Protocol: They were minced and homogenized with a polytron in 95 mM NaCl, 0.1 mM phenylmethylsulfonyl fluoride (PMSF), and 45 mM Tris solution, pH 7.6. […] The pellets were resuspended in 5 mM Tris buffer solution, pH 8.0 and 10% glycerol. All purification steps were performed at 4°C. The preparations were kept at −80°C.
For inhibition screening, three independent experiments were performed. […] The reaction buffer contained 10 mM HEPES, 2 mM CaCl2, 1 mM MgCl2, pH 7.4. The samples were incubated at 37°C for 4 min, and the enzymatic reaction was terminated by heating at 90°C for 5 min. The solution was then diluted 1:20 with reaction buffer to perform separation of nucleotides by capillary electrophoresis (CE) followed by laser-induced fluorescence (LIF) detection. […] Three independent experiments were performed, and curves were calculated by GraphPad Prism 8 software (GraphPad software, San Diego, CA, USA).
Analysis was carried out using a P/ACE MDQ capillary electrophoresis system (Beckman Instruments, Fullerton, CA, USA). The separation was performed in a polyacrylamide-coated capillary [30 cm (10 cm effective length) × 50 µm (id), × 360 µm (od)]. Before each run, the capillary was rinsed with the background electrolyte [50 mM phosphate buffer (pH 6.5)] for 1 min at 30 psi. Samples were electrokinetically injected by applying a voltage of -6 kV for 30 s at the capillary outlet, and the fluorescent nucleotide derivatives were separated by voltage application of -15 kV. […] Data collection and peak area analysis were performed by the P/ACE MDQ software 32 KARAT obtained from Beckman Coulter (Fullerton, CA, USA).

SMILES | stability of stock solutions [1] | Ki [2] | % inhibition [2] | Ki [3]
CCCCNc1nc2c(NC)ncnc2n1[C@@H]1O[C@H](COP(=O)(O)OP(=O)(O)C(Br)(Br)P(=O)(O)O)[C@@H](O)[C@H]1O [Compound 33, (Dibromo((((((2R,3S,4R,5R)-5-(8-(butylamino)-6-(methylamino)-9H-purin-9-yl)-3,4-dihydroxy-tetrahydrofuran-2-yl)methoxy)(hydroxy)phosphoryl)oxy)-(hydroxy)phosphoryl)methyl)-phosphonic Acid] | stable | > 50 µM | -11% | 1.51 ± 0.4 µM
CCCCSc1nc2c(N)ncnc2n1[C@@H]1O[C@H](COP(=O)(O)OP(=O)(O)C(Br)(Br)P(=O)(O)O)[C@@H](O)[C@H]1O [Compound 31, (((((((2R,3S,4R,5R)-5-(6-Amino-8-(butylthio)-9H-purin-9-yl)-3,4-dihydroxytetrahydrofuran-2-yl)methoxy)(hydroxy)-phosphoryl)oxy)(hydroxy)phosphoryl)dibromomethyl)-phosphonic Acid] | stable | > 50 µM | 2% | –
CCN(CC)c1ncnc2c1ncn2[C@@H]1O[C@H](COP(=O)(O)OP(=O)(O)C(Br)(Br)P(=O)(O)O)[C@@H](O)[C@H]1O [ARL67156, (Dibromo((((((2R,3S,4R,5R)-5-(6-(diethylamino)-9H-purin-9-yl)-3,4-dihydroxytetrahydrofuran-2-yl)methoxy)-(hydroxy)-phosphoryl)oxy)(hydroxy)phosphoryl)methyl)-phosphonic Acid, reference compound] | stable | > 50 µM | 2% | –
